The test system of one experiment is HIV-1 (RF) in MT-2 cells. Briefly: microbe, parasite or virus in culture. The class given is cell-based. The following applies: Human immunodeficiency virus 1, MT2, 48 h, Table 2d; HIV RNA assay; read-out: IC90. The procedure: DNA Plasmids and in vitro RNA transcripts:
Plasmid pDAB 72 containing both gag and pol sequences of BH10 (bp 113-1816) cloned into PTZ 19R was prepared according to Erickson-Viitanen et al. AIDS Research and Human Retroviruses 1989, 5, 577. The plasmid was linearized with Bam HI prior to the generation of in vitro RNA transcripts using the Riboprobe Gemini system II kit (Promega) with T7 RNA polymerase. Synthesized RNA was purified by treatment with RNase free DNAse (Promega), phenol-chloroform extraction, and ethanol precipitation. RNA transcripts were dissolved in water, and stored at −70° C. The concentration of RNA was determined from the A260.
Biotinylated capture probes were purified by HPLC after synthesis on an Applied Biosystems (Foster City, Calif.) DNA synthesizer by addition of biotin to the 5′ terminal end of the oligonucleotide, using the biotin-phosphoramidite reagent of Cocuzza, Tet. Lett. 1989, 30, 6287. The gag biotinylated capture probe (5-biotin-[…] 3′) was complementary to nucleotides 889-912 of HXB2 and the pol biotinylated capture probe (5′-biotin-[…] 3′) was complementary to nucleotides 2374-2395 of HXB2. Alkaline phosphatase conjugated oligonucleotides used as reporter probes were prepared by Syngene (San Diego, Calif.). The pol reporter probe (5′ […] 3′) was complementary to nucleotides 2403-2425 of HXB2. The gag reporter probe (5′ […] 3′) was complementary to nucleotides 950-973 of HXB2. All nucleotide positions are those of the GenBank Genetic Sequence Data Bank as accessed through the Genetics Computer Group Sequence Analysis Software Package (Devereau Nucleic Acids Research 1984, 12, 387). The reporter probes were prepared as 0.5μM stocks in 2× SSC (0.3M NaCl, 0.03M sodium citrate), 0.05M Tris pH 8.8, 1 mg/mL BSA. The biotinylated capture probes were prepared as 10 μM stocks in water.
Streptavidin coated plates:
Nunc-immunomodule microtiter plate strips were coated by addition of 200 μL of streptavidin (30 ug/mL, Scripps, La Jolla, Calif.) in freshly prepared 10 mM sodium carbonate (pH 9.6). Plates were incubated overnight at 4° C. Streptavidin solution was aspirated from the wells and a blocking buffer composed of phosphate buffered saline (PBS), 20 mg/mL bovine serum albumin (crystalline, nuclease and protease free, Calbiochem) and 100 mg/mL lactose (Sigma) was added to the plates for 3 hrs at room temperature. Blocking buffer was removed from the wells, which were allowed to dry overnight at room temperature and subsequently stored at 4° C. in zip lock bags with desiccant. For the majority of the compound evaluation experiments, streptavidin coated plates were obtained from Du Pont Biotechnology Systems (Boston, Mass.).
MT-2, CEM, and H9 cells were maintained in RPMI 1640 supplemented with 5% fetal calf serum (FCS), 2 mM L-glutamine and 50 μg/mL gentamycin, all from Gibco. Laboratory strains of HIV-1 (RF, MN and IIIB) were propagated in H9 cells in the same medium. Virus stocks were prepared approximately 1 month after acute infection of H9 cells by clarification of the tissue culture medium and storage of aliquots at −70° C. […] Each aliquot of virus stock used for infection was thawed only once. In some cases, infected H9 cells were shifted to Dulbecco's modified Eagle's medium 3-10 days before collection of virus in order to generate virus stocks in medium with low biotin content. Clinical isolates of HIV that had been passaged once in MT-2 cells were used to infect fresh MT-2 cells in RPMI medium. Three days after infection, cells were pelleted, resuspended and culture continued in Dulbecco's modified Eagle's medium as above. Virus stocks of clinical isolates were prepaid 10-15 days after infection when cytopathic effects were apparent in the culture.
With `O=C1N(Cc2ccc(O)cc2)C(Cc2ccccc2)C(O)C(O)C(Cc2ccccc2)N1Cc1cccc(-c2cc[nH]n2)c1` (stereo not shown) [15CA], the concentration for an effect of 90% (IC90) was < 10 µg/mL.
On the same count and under the same terms, as for `N#CCc1cccc(CN2C(=O)N(Cc3cccc(CC#N)c3)C(Cc3ccccc3)C(O)C(O)C2Cc2ccccc2)c1` (stereo not shown) [15DU], the figure is < 10 µg/mL; as for `NC(=O)Cc1cccc(CN2C(=O)N(Cc3cccc(CC(N)=O)c3)C(Cc3ccccc3)C(O)C(O)C2Cc2ccccc2)c1` (stereo not shown) [15DV], < 10 µg/mL; as for `O=C1N(Cc2ccc(CO)cc2)C(Cc2ccccc2)C(O)C(O)C(Cc2ccccc2)N1Cc1ccccc1O` (stereo not shown) [15EA], < 10 µg/mL.
`N#Cc1cc(CN2C(=O)N(Cc3ccc(F)c(C#N)c3)C(Cc3ccccc3)C(O)C(O)C2Cc2ccccc2)ccc1F` (stereo not shown) [15EC]: the IC90 was < 10 µg/mL.

Still in this experiment, the particulars now being: Human immunodeficiency virus 1, MT2, 48 h, Table 2d; class symbols; read-out: IC90.
With `Nc1cccc(CN2C(=O)N(Cc3ccc(CO)cc3)C(Cc3ccccc3)C(O)C(O)C2Cc2ccccc2)c1` (stereo not shown) [15A], the IC90 is < 10 µg/mL.

The same experiment, now with this note: Table 2d; HIV RNA assay.
For the compound `CC(C)(C)OC(=O)NN=Cc1cccc(CN2C(=O)N(Cc3cccc(C=NNC(=O)OC(C)(C)C)c3)C(Cc3ccccc3)C(O)C(O)C2Cc2ccccc2)c1` (stereo not shown) [15AL], the IC90 entry is on record as “+++ (+++=<10 μg/mL)”.
Same read-out and setting: the result for `CNC(=NO)c1cccc(CN2C(=O)N(Cc3cccc(C(=NO)NC)c3)C(Cc3ccccc3)C(O)C(O)C2Cc2ccccc2)c1` (stereo not shown) [15AZ] reads “+++ (+++=<10 μg/mL)”; that for `CCCNC(=NO)c1cccc(CN2C(=O)N(Cc3cccc(C(=NO)NCCC)c3)C(Cc3ccccc3)C(O)C(O)C2Cc2ccccc2)c1` (stereo not shown) [15BA], “+++ (+++=<10 μg/mL)”; that for `O=C(NCc1ccccn1)c1cccc(CN2C(=O)N(Cc3cccc(-c4cc[nH]n4)c3)C(Cc3ccccc3)C(O)C(O)C2Cc2ccccc2)c1` (stereo not shown) [15CB], “+++ (+++=<10 μg/mL)”.
The same measure, in the same setting: the result for `CC(C)(CO)CCCCN1C(=O)N(CCCCC(C)(C)CO)C(Cc2ccccc2)C(O)C(O)C1Cc1ccccc1` (stereo not shown) [15CP] reads “+++ (+++=<10 μg/mL)”.
The same measure, in the same setting: the result for `O=C1N(Cc2ccc3[nH]cnc3c2)C(Cc2ccccc2)C(O)C(O)C(Cc2ccccc2)N1Cc1ccc2[nH]cnc2c1` (stereo not shown) [15CS] reads “++ (++=10 to 100 μg/mL)”.
As for `O=C1N(Cc2ccc3[nH]nnc3c2)C(Cc2ccccc2)C(O)C(O)C(Cc2ccccc2)N1Cc1ccc2[nH]nnc2c1` (stereo not shown) [15CT], the IC90 result was “+++ (+++=<10 μg/mL)”.
The same measure, in the same setting: the result for `O=C1N(Cc2ccc3c(c2)NS(=O)(=O)N3)C(Cc2ccccc2)C(O)C(O)C(Cc2ccccc2)N1Cc1ccc2c(c1)NS(=O)(=O)N2` (stereo not shown) [15CW] reads “++ (++=10 to 100 μg/mL)”; that for `O=C1Nc2ccc(CN3C(=O)N(Cc4ccc5c(c4)C(=NO)C(=O)N5)C(Cc4ccccc4)C(O)C(O)C3Cc3ccccc3)cc2C1=NO` (stereo not shown) [15DB], “+++ (+++=<10 μg/mL)”.
With `O=C1N(Cc2ccc3oc(=O)[nH]c3c2)C(Cc2ccccc2)C(O)C(O)C(Cc2ccccc2)N1Cc1ccc2oc(=O)[nH]c2c1` (stereo not shown) [15DC], the IC90 result is “+++ (+++=<10 μg/mL)”.
For the compound `O=C1Cc2cc(CN3C(=O)N(Cc4ccc5c(c4)CC(=O)N5)C(Cc4ccccc4)C(O)C(O)C3Cc3ccccc3)ccc2N1` (stereo not shown) [15DD], the IC90 result was “+++ (+++=<10 μg/mL)”.

The next experiment addresses single-chain tethered dimer of HIV protease (Human immunodeficiency virus 1, UniProt P04585). The experiment can be described thus: biochemical. The class given is biochemical. Also noted: fused on or other part: A second copy of the same protease unit is joined to the first by a short peptide tether, giving one polypeptide. To be noted: Table 2d; HIV protease inhibition, HPLC method; read-out: HPLC K1.
With `CC(C)(C)OC(=O)NN=Cc1cccc(CN2C(=O)N(Cc3cccc(C=NNC(=O)OC(C)(C)C)c3)C(Cc3ccccc3)C(O)C(O)C2Cc2ccccc2)c1` (stereo not shown) [15AL], the Ki lay in the range of 10 to 1000 nM.
Same read-out and setting: as for `CNC(=NO)c1cccc(CN2C(=O)N(Cc3cccc(C(=NO)NC)c3)C(Cc3ccccc3)C(O)C(O)C2Cc2ccccc2)c1` (stereo not shown) [15AZ], the figure is < 10 nM.
The same measure, in the same setting: the result for `CCCNC(=NO)c1cccc(CN2C(=O)N(Cc3cccc(C(=NO)NCCC)c3)C(Cc3ccccc3)C(O)C(O)C2Cc2ccccc2)c1` (stereo not shown) [15BA] reads < 10 nM; that for `O=C(NCc1ccccn1)c1cccc(CN2C(=O)N(Cc3cccc(-c4cc[nH]n4)c3)C(Cc3ccccc3)C(O)C(O)C2Cc2ccccc2)c1` (stereo not shown) [15CB], < 10 nM; that for `CC(C)(CO)CCCCN1C(=O)N(CCCCC(C)(C)CO)C(Cc2ccccc2)C(O)C(O)C1Cc1ccccc1` (stereo not shown) [15CP], 10 to 1000 nM.
The same measure, in the same setting: as for `O=C1N(Cc2ccc3[nH]cnc3c2)C(Cc2ccccc2)C(O)C(O)C(Cc2ccccc2)N1Cc1ccc2[nH]cnc2c1` (stereo not shown) [15CS], the figure is 10 to 1000 nM; as for `O=C1N(Cc2ccc3[nH]nnc3c2)C(Cc2ccccc2)C(O)C(O)C(Cc2ccccc2)N1Cc1ccc2[nH]nnc2c1` (stereo not shown) [15CT], < 10 nM; as for `O=C1N(Cc2ccc3c(c2)NS(=O)(=O)N3)C(Cc2ccccc2)C(O)C(O)C(Cc2ccccc2)N1Cc1ccc2c(c1)NS(=O)(=O)N2` (stereo not shown) [15CW], < 10 nM.
With `O=C1Nc2ccc(CN3C(=O)N(Cc4ccc5c(c4)C(=NO)C(=O)N5)C(Cc4ccccc4)C(O)C(O)C3Cc3ccccc3)cc2C1=NO` (stereo not shown) [15DB], the Ki was < 10 nM.
The same measure, in the same setting: as for `O=C1N(Cc2ccc3oc(=O)[nH]c3c2)C(Cc2ccccc2)C(O)C(O)C(Cc2ccccc2)N1Cc1ccc2oc(=O)[nH]c2c1` (stereo not shown) [15DC], the figure is < 10 nM.
The same measure, in the same setting: the result for `O=C1Cc2cc(CN3C(=O)N(Cc4ccc5c(c4)CC(=O)N5)C(Cc4ccccc4)C(O)C(O)C3Cc3ccccc3)ccc2N1` (stereo not shown) [15DD] reads < 10 nM.

Staying with this experiment, now noted: read-out: HPLC K1; Table 2d; HIV protease inhibition, HPLC method.
In the case of `O=C1N(Cc2ccc(O)cc2)C(Cc2ccccc2)C(O)C(O)C(Cc2ccccc2)N1Cc1cccc(-c2cc[nH]n2)c1` (stereo not shown) [15CA], the Ki was < 10 nM.
Still for that read-out and setting: the result for `N#CCc1cccc(CN2C(=O)N(Cc3cccc(CC#N)c3)C(Cc3ccccc3)C(O)C(O)C2Cc2ccccc2)c1` (stereo not shown) [15DU] reads 10 to 1000 nM; that for `NC(=O)Cc1cccc(CN2C(=O)N(Cc3cccc(CC(N)=O)c3)C(Cc3ccccc3)C(O)C(O)C2Cc2ccccc2)c1` (stereo not shown) [15DV], < 10 nM.
For the compound `O=C1N(Cc2ccc(CO)cc2)C(Cc2ccccc2)C(O)C(O)C(Cc2ccccc2)N1Cc1ccccc1O` (stereo not shown) [15EA], the Ki is < 10 nM.
The same measure, in the same setting: the result for `N#Cc1cc(CN2C(=O)N(Cc3ccc(F)c(C#N)c3)C(Cc3ccccc3)C(O)C(O)C2Cc2ccccc2)ccc1F` (stereo not shown) [15EC] reads 10 to 1000 nM.

The same experiment, now with this note: read-out: HPLC K1; Table 2d; class symbols.
In the case of `Nc1cccc(CN2C(=O)N(Cc3ccc(CO)cc3)C(Cc3ccccc3)C(O)C(O)C2Cc2ccccc2)c1` (stereo not shown) [15A], the Ki was < 10 nM.
